In the supplement of paper PMC10307832:

Tests used:
Experiment in all cases: relative viability (nuclei count vs DMSO), 5 days (fraction); higher = more cells survive
Erlotinib = compound: C#Cc1cccc(Nc2ncnc3cc(OCCOC)c(OCCOC)cc23)c1 [Erlotinib]
Method in brief: (§1)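 Cells of lung cancer lines were placed in 1536-well plates and kept overnight at 37 °C. Pinning then delivered five library-drug doses (not always all listed), spaced by √10, onto plates anchored with vehicle, and the cells were left 5 days without changing medium. One step fixed, permeabilised and stained them with Hoechst, and MetaXpress counted nuclei in 4× images. Viability, as a median over plates, is treated-well nuclei divided by vehicle-well nuclei, with acceptance only at control CV below 25% and at least one doubling.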

Phenformin = compound: N=C(N)NC(=N)NCCc1ccccc1 [Phenformin] (anchor plate); conditions: 250 µM
Method in brief: as §1

AT9283 = compound: O=C(Nc1c[nH]nc1-c1nc2ccc(CN3CCOCC3)cc2[nH]1)NC1CC1 [AT9283]
Method in brief: as §1

Erlotinib + Linsitinib = compound: C#Cc1cccc(Nc2ncnc3cc(OCCOC)c(OCCOC)cc23)c1 [Erlotinib] + C[C@]1(O)C[C@@H](c2nc(-c3ccc4ccc(-c5ccccc5)nc4c3)c3c(N)nccn32)C1 [Linsitinib] (partner 1 µM)
Method in brief: (§2)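 Lung cancer cell lines were seeded in 1536-well plates and dosed by pin tool the next day, with either a single drug or a fixed anchor-drug dose combined with five library-drug doses (not always all listed) spaced in √10 steps. Five days later, one step fixed the cells and stained their nuclei (final 0.05% Triton X-100, 1% formaldehyde, 1 ug/ml Hoechst), and nuclei were counted on 4× images. Relative viability is the nuclei count in treated wells divided by the count in vehicle wells, and each value is the median of duplicate plates.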

AT9283 + Phenformin = compound: O=C(Nc1c[nH]nc1-c1nc2ccc(CN3CCOCC3)cc2[nH]1)NC1CC1 [AT9283] + N=C(N)NC(=N)NCCc1ccccc1 [Phenformin] (partner 250 µM)
Method in brief: as §2

Cell Line | relative viability (Erlotinib; 0.02 µM) | relative viability (Erlotinib; 0.2 µM) | relative viability (Erlotinib; 0.6325 µM) | relative viability (Erlotinib; 2 µM) | relative viability (Phenformin) | relative viability (AT9283; 0.003 µM) | relative viability (AT9283; 0.03 µM) | relative viability (AT9283; 0.09487 µM) | relative viability (AT9283; 0.3 µM) | relative viability (Erlotinib + Linsitinib; first compound 0.02 µM) | relative viability (Erlotinib + Linsitinib; first compound 0.2 µM) | relative viability (Erlotinib + Linsitinib; first compound 0.6325 µM) | relative viability (Erlotinib + Linsitinib; first compound 2 µM) | relative viability (AT9283 + Phenformin; first compound 0.003 µM) | relative viability (AT9283 + Phenformin; first compound 0.03 µM) | relative viability (AT9283 + Phenformin; first compound 0.09487 µM) | relative viability (AT9283 + Phenformin; first compound 0.3 µM)
201T | 0.963 | 0.957 | 0.946 | 0.865 | 0.45 | 0.909 | 0.97 | 0.537 | 0.361 | 0.968 | 0.933 | 1.01 | 0.854 | 0.445 | 0.419 | 0.345 | 0.285
A549 | 0.918 | 0.936 | 0.963 | 0.879 | 0.165 | 0.917 | 0.458 | 0.125 | 0.0647 | 0.546 | 0.523 | 0.63 | 0.489 | 0.284 | 0.0777 | 0.0526 | 0.0427
A-427 | 1.03 | 0.957 | 1.08 | 1.01 | 0.323 | 0.929 | 0.453 | 0.264 | 0.242 | 1.15 | 1.1 | 1.12 | 1.12 | 0.334 | 0.178 | 0.133 | 0.145
ABC-1 | 0.827 | 0.881 | 1.01 | 0.81 | 0.25 | 0.831 | 0.301 | 0.3 | 0.235 | 0.928 | 0.674 | 0.776 | 0.686 | 0.231 | 0.159 | 0.233 | 0.192
BEN | 0.927 | 0.954 | 1.19 | 0.961 | 0.263 | 0.874 | 0.965 | 0.23 | 0.278 | 0.96 | 0.893 | 1.16 | 0.891 | 0.259 | 0.253 | 0.256 | 0.176
CAL-12T | 1 | 0.785 | 0.618 | 0.521 | 0.597 | 1.06 | 0.828 | 0.451 | 0.227 | 0.804 | 0.654 | 0.5 | 0.368 | 0.607 | 0.345 | 0.267 | 0.18
COR-L23 | 1.09 | 1.04 | 1.22 | 0.894 | 0.43 | 1.05 | 0.592 | 0.206 | 0.183 | 1.21 | 0.95 | 1.07 |  | 0.45 | 0.221 | 0.128 | 0.12
COR-L 105 | 0.931 | 0.515 | 0.4 | 0.334 | 0.551 | 0.983 | 0.4 | 0.334 | 0.334 | 0.907 | 0.532 | 0.385 | 0.289 | 0.513 | 0.2 | 0.303 | 0.223
Calu-6 | 1.01 | 0.986 | 1.01 | 0.907 |  | 1.01 | 0.299 | 0.246 | 0.273 | 1.01 | 0.913 | 0.902 | 0.816 |  |  |  | 
ChaGo-K-1 | 0.977 | 1.05 | 1.04 | 0.903 | 0.514 | 0.849 | 0.91 | 0.451 | 0.396 |  |  |  |  | 0.476 | 0.341 | 0.235 | 0.204
EBC-1 | 0.977 | 0.988 | 0.978 | 0.897 |  | 0.969 | 0.289 | 0.164 | 0.165 | 0.918 | 0.969 | 1.06 | 0.699 |  |  |  | 
EKVX | 0.962 | 0.587 | 0.43 | 0.215 | 0.231 | 0.915 | 0.858 | 0.629 | 0.324 | 0.941 | 0.395 | 0.235 | 0.117 | 0.237 | 0.223 | 0.212 | 0.196
EMC-BAC-2 | 0.743 | 1.04 | 1.1 | 0.979 | 0.558 | 0.907 | 0.463 | 0.319 | 0.221 | 0.795 | 0.705 | 0.703 | 0.584 | 0.565 | 0.251 | 0.208 | 0.163
EPLC-272H | 1.06 | 0.882 | 1.02 | 0.724 | 0.321 | 0.886 | 0.81 | 0.203 | 0.156 | 1.11 | 1.18 | 1.06 | 0.802 | 0.33 | 0.309 | 0.148 | 0.141
H3255 | 0.946 | 0.709 | 0.514 | 0.225 | 0.386 | 0.998 | 0.95 | 0.714 | 0.177 | 0.971 | 0.297 | 0.188 | 0.115 | 0.403 | 0.328 | 0.273 | 0.255
HARA | 1.04 | 0.707 | 0.823 | 0.466 | 0.46 | 0.859 | 0.446 | 0.166 | 0.171 | 1.13 | 0.834 | 0.59 | 0.197 | 0.499 | 0.261 | 0.208 | 0.0751
HCC-15 | 1.05 | 0.97 | 1.08 | 0.888 | 0.491 | 0.955 | 0.589 | 0.325 | 0.17 | 0.927 | 0.922 | 1 |  | 0.464 | 0.277 | 0.106 | 0.117
HCC-44 | 0.994 | 0.961 | 1.01 | 0.975 | 0.218 | 0.988 | 1 | 0.614 | 0.335 | 0.663 | 0.664 | 0.723 | 0.61 | 0.124 | 0.169 | 0.106 | 0.0704
HCC-78 | 0.99 | 0.963 | 1.08 | 0.745 | 0.681 | 0.847 | 0.794 | 0.332 | 0.262 | 0.5 | 0.439 | 0.401 | 0.383 | 0.611 | 0.511 | 0.333 | 0.26
